In ChEMBL document CHEMBL3044528, “Potential new fungicides: N-acyl-5-methyl-3(2H)-isoxazolone derivatives” (2012):

Legend:
Assay type in all cases: functional
[1] = test system: Cercospora beticola; experiment: Fungicidal activity against Cercospora beticola Be-2-6 assessed as mycelial growth inhibition at 25 mg/L after 7 days; settings: Be-2-6, 168 h, read-out: GI
[2] = test system: Microdochium nivale; experiment: Fungicidal activity against Microdochium nivale IFO-7432 assessed as mycelial growth inhibition at 25 mg/L after 3 days; settings: IFO-7432, 72 h, read-out: GI
[3] = test system: Alternaria alternata; experiment: Fungicidal activity against Alternaria alternata APS-38 assessed as mycelial growth inhibition at 25 mg/L after 3 days; settings: APS-38, 72 h, read-out: GI
[4] = test system: Zymoseptoria tritici; experiment: Fungicidal activity against Zymoseptoria tritici S3 assessed as mycelial growth inhibition at 25 mg/L after 14 days; settings: S3, 336 h, read-out: GI
[5] = test system: Rhynchosporium secalis; experiment: Fungicidal activity against Rhynchosporium secalis IFO-5290 assessed as mycelial growth inhibition at 25 mg/L after 14 days; settings: IFO-5290, 336 h, read-out: GI
[6] = test system: Fusarium graminearum; experiment: Fungicidal activity against Fusarium graminearum H3 assessed as mycelial growth inhibition at 25 mg/L after 3 days; settings: H3, 72 h, read-out: GI
[7] = test system: Pyrenophora graminea; experiment: Fungicidal activity against Pyrenophora graminea IFO-7507 assessed as mycelial growth inhibition at 25 mg/L after 3 days; settings: IFO-7507, 72 h, read-out: GI
[8] = test system: Gaeumannomyces graminis; experiment: Fungicidal activity against Gaeumannomyces graminis MAFF305168 assessed as mycelial growth inhibition at 25 mg/L after 1 day; settings: MAFF305168, 24 h, read-out: GI
[9] = test system: Rhizoctonia solani; experiment: Fungicidal activity against Rhizoctonia solani ET0007 assessed as mycelial growth inhibition at 25 mg/L after 1 day; settings: ET0007, 24 h, read-out: GI

SMILES | inhibition of growth at 25 µg/mL [1] | inhibition of growth at 25 µg/mL [2] | inhibition of growth at 25 µg/mL [3] | inhibition of growth at 25 µg/mL [4] | inhibition of growth at 25 µg/mL [5] | inhibition of growth at 25 µg/mL [6] | inhibition of growth at 25 µg/mL [7] | inhibition of growth at 25 µg/mL [8] | inhibition of growth at 25 µg/mL [9]
Cc1cc(=O)n(Cc2ccccc2)o1 | 4% | 4% | 9% | 6% | 0% | 6% | 46% | 0% | 10%
CC(=O)n1oc(C)cc1=O | 92% | 79% | 90% | 98% | 100% | 50% | 72% | 72% | 26%
CCC(=O)n1oc(C)cc1=O | 94% | 68% | 87% | 69% | 100% | 32% | 88% | 50% | 22%
Cc1cc(=O)n(C(=O)C(C)(C)C)o1 | 85% | 82% | 84% | 64% | 100% | 40% | 95% | 83% | 43%
Cc1cc(=O)n(C(=O)CCl)o1 | 94% | 72% | 81% | 70% | 100% | 28% | 89% | 66% | 19%
COCC(=O)n1oc(C)cc1=O | 91% | 45% | 62% | 63% | 100% | 37% | 82% | 54% | 68%
Cc1cc(=O)n(C(=O)CC(C)(C)C)o1 | 93% | 76% | 64% | 70% | 96% | 47% | 76% | 97% | 71%
Cc1cc(=O)n(C(=O)CCC(F)(F)F)o1 | 89% | 54% | 61% | 65% | 98% | 32% | 46% | 60% | 57%
CSCCC(=O)n1oc(C)cc1=O | 92% | 50% | 64% | 67% | 99% | 37% | 76% | 58% | 62%
Cc1cc(=O)n(C(=O)Cc2ccccc2)o1 | 84% | 51% | 67% | 83% | 99% | 32% | 71% | 66% | 5%
Cc1cc(=O)n(C(=O)C(C)c2ccccc2)o1 (stereo not drawn) | 86% | 55% | 48% | 83% | 99% | 33% | 74% | 5% | 20%
Cc1cc(=O)n(C(=O)C(C)(C)Oc2ccc(Cl)cc2)o1 | 74% | 23% | 53% | 73% | 100% | 6% | 81% | 29% | 3%
